# Like-named read-outs stand apart in the source and are kept apart here.
# Columns and labels:
# Type in all cases: in vivo
# corn [1] = assay: Example 8, Procedure II: Herbicide No. 1 + butachlor (No. 9) with antidotes
# In short: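 Corn sown in silt loam and covered with soil pre-mixed with acetone-applied Herbicide No. 1 plus butachlor, with or without antidote. Given 0.6 cm overhead irrigation, then sub-irrigated in greenhouse; antidote effect is percent injury without minus with antidote.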
# [2] = test system: barnyardgrass (Echinochloa crusgalli); assay: as above
# In short: (§1)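 Herbicide No. 1 plus butachlor, with or without antidote, applied in acetone and mixed into a soil layer covering corn seed beds, with weeds barnyardgrass and velvetleaf. Greenhouse test with an initial 0.6 cm overhead irrigation, then sub-irrigation. Percent injury was scored, and antidote efficacy taken as the injury difference with and without antidote.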
# [3] = test system: velvetleaf (Abutilon theophrasti); assay: as above
# In short: as §1
# [4] = test system: barnyardgrass (Echinochloa crusgalli); assay: Example 10, Procedure II: Herbicide No. 1 + propachlor (No. 5) with antidotes; details: no antidote
# In short: (§2)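 Herbicide No. 1 plus propachlor and antidote, each in acetone, incorporated into silt loam cover soil over seeded corn/weed beds; untreated and herbicide-only controls included. Initial overhead irrigation equal to 0.6 cm rainfall, then greenhouse sub-irrigation. Response scored as percent injury; safening taken as injury difference without versus with antidote.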
# [5] = test system: velvetleaf (Abutilon theophrasti); assay: as above; details: no antidote
# In short: as §2
# [6] = test system: barnyardgrass (Echinochloa crusgalli); assay: Example 22: retest of Example 21 at reduced greenhouse temperatures; details: Table 22
# Description: (§3) Containers were filled and compacted with a fumigated silt loam top soil to a depth of about 1.3 cm from the top of the container. A first container was designated as an untreated control, a second container was designated as a herbicide control, and a third container was designated as a herbicide + antidote test container. Each of the containers was seeded with a crop species. A measured amount of herbicide dispersed or dissolved in acetone was applied to a measured quantity of soil. To this same quantity of soil treated with herbicide, there was added a measured amount of antidote dispersed or dissolved in acetone. The quantity of soil treated with the herbicide and antidote was thoroughly mixed to incorporate the herbicide and antidote in the soil uniformly. The seed bed in the third container of soil was covered with the soil treated with the herbicide and antidote and the container was leveled. For each test series, the seed beds of the first and second containers were likewise covered by soil layers. the cover layer of the first container was not treated with herbicide or antidote.
# (§4) The containers were then placed on a bench in a greenhouse and sub-irrigated as required for the duration of the test. […] Plant response is measured in terms of percent injury. Antidote efficacy is indicated as the difference in plant injury by the herbicide(s) without the antidote and with the antidote.
# (§5) This procedure is the same as Procedure I, but modified in the manner that after incorporation of the chemicals (herbicide and antidote) the containers with the covered seedbed were treated with an initial overhead irrigation equivalent to 0.6 cm rainfall, then subsequently sub-irrigated as required on greenhouse benches.
# (§6) In the series of greenhouse tests described below, for routine screening purposes the herbicide/antidote compositions were tested in crop/weed combinations involving corn as the crop and either or both of the weeds barnyardgrass (Echinochloa crusgalli), a monocotyledonous weed, and velvetleaf (Abutilon theophrasti), a dicotyledonous weed. In the tables below, these weeds are indicated by the symbols "BYG" and "VL", respectively.
# (§7) In this example, tests were conducted as in the preceding Examples 18-20, except here the co-herbicidal component was SUTAN® PLUS, a commercial product comprising as the active herbicidal ingredient the compound butylate (Herbicide No. 10) and an antidote […] (Antidote No. 1). Again, the antidotal compounds herein were Nos. 1, 2, 7, 13 and 15. Procedure II was used.
# (§8) The experiments in this example were designed as a retest of those described in Example 21 in view of the uncharacteristically poor corn safety and weed control, believed to have resulted from unseasonably high temperatures in the greenhouse. Accordingly, temperatures were reduced for these tests.
# [7] = test system: velvetleaf (Abutilon theophrasti); assay: as above; details: Table 22
# Description: as §3, §4, §5, §6, §7, §8
# [8] = test system: Giant foxtail (Setaria fabergi); assay: Example 23, Procedure II: Antidote Nos. 15 and 17-21 against Herbicide No. 1, 13 days after application; details: Setaria, 312 h
# Description: as §3, §4, §5
# (§9) In other greenhouse tests, using Procedure II described above, the safening efficacy of Antidote Nos. 15 and 17-21 was evaluated against Herbicide No. 1 in corn in the presence of Giant foxtail (Setaria fabergi) and Velvetleaf (Abutilon theophrasti) as representative annual monocotyledonous and dicotyledonous weeds, respectively.
# (§10) Test results are shown in Tables 23A and 23B wherein the indicated plant inhibition represents the average of duplicate replications, with observations being made thirteen (13) days after application of the chemicals. Giant foxtail and Velvetleaf are represented by the symbols "GFT" and "VL", respectively. The data in Table 23A show the test results using the antidotes at 2.24 kg/ha, whereas in Table 23B, the antidotal rate was reduced to 0.56 kg/ha.
# corn [9] = assay: as above; details: Zea mays, 312 h, no antidote, 13 days after application; for inhibition at 140 g/ha: Herb. No. 1 0.14 Kg/Ha; for inhibition at 280 g/ha: Herb. No. 1 0.28 Kg/Ha; for inhibition at 560 g/ha: Herb. No. 1 0.56 Kg/Ha; for inhibition at 1120 g/ha: Herb. No. 1 1.12 Kg/Ha
# Description: as §3, §4, §5, §9, §10
# [10] = test system: velvetleaf (Abutilon theophrasti); assay: as above; details: Abutilon theophrasti, 312 h
# Description: as §3, §4, §5, §9, §10
# [11] = Herbicide No.1 0.14 + No.9 2.24 kg/ha, no antidote
# [12] = Herbicide No.1 0.14 kg/ha alone
# [13] = Herbicide No.1 0.56 + No.9 (butachlor) 2.24 kg/ha, no antidote
# [14] = Herbicide No.1 0.56 kg/ha alone
# [15] = Herbicide No.1 0.56 Kg/ha + SUTAN + 8.96 Kg/ha, no added antidote
# [16] = Herbicide No.1 0.56 Kg/ha alone
# [17] = Herbicide No.1 1.12 Kg/ha + SUTAN + 8.96 Kg/ha, no added antidote
# [18] = Herbicide No.1 1.12 Kg/ha alone
# [19] = read-out: % Inhibition Corn, Table 23A
# [20] = read-out: % Inhibition Corn, Table 23B
smiles,measurement,setting,value
COC(=O)c1c(Cl)nn(C)c1S(=O)(=O)NC(=O)Nc1nc(OC)cc(OC)n1 [Herbicide No. 1],% Injury Corn,corn [1]; [11],25%
same,% Injury Corn,corn [1]; [12],10%
same,% Injury Corn,corn [1]; [13],65%
same,% Injury Corn,corn [1]; [14],60%
same,% Injury BYG,[2]; [11],100%
same,% Injury BYG,[2]; [12],55%
same,% Injury BYG,[2]; [13],100%
same,% Injury BYG,[2]; [14],93%
same,% Injury VL,[3]; [11],70%
same,% Injury VL,[3]; [12],70%
same,% Injury VL,[3]; [13],85%
same,% Injury VL,[3]; [14],85%
same,% Injury BYG,[4]; [12],75%
same,% Injury BYG,[4]; [14],80%
same,% Injury VL,[5]; [12],70%
same,% Injury VL,[5]; [14],75%
same,% Injury BYG,[6]; [15],93%
same,% Injury BYG,[6]; [16],55%
same,% Injury BYG,[6]; [17],93%
same,% Injury BYG,[6]; [18],70%
same,% Injury VL,[7]; [15],80%
same,% Injury VL,[7]; [16],65%
same,% Injury VL,[7]; [17],85%
same,% Injury VL,[7]; [18],80%
same,inhibition at 140 g/ha,"[8]; read-out: % Inhibition GFT, Table 23A, Herb. No. 1 0.14 Kg/Ha, no antidote",25%
same,inhibition at 280 g/ha,"[8]; read-out: % Inhibition GFT, Table 23A, Herb. No. 1 0.28 Kg/Ha, no antidote",35%
same,inhibition at 560 g/ha,"[8]; read-out: % Inhibition GFT, Table 23A, Herb. No. 1 0.56 Kg/Ha, no antidote",60%
same,inhibition at 1120 g/ha,"[8]; read-out: % Inhibition GFT, Table 23A, Herb. No. 1 1.12 Kg/Ha, no antidote",80%
same,inhibition at 140 g/ha,"[8]; read-out: % Inhibition GFT, Table 23B, Herb. No. 1 0.14 Kg/Ha, no antidote",30%
same,inhibition at 280 g/ha,"[8]; read-out: % Inhibition GFT, Table 23B, Herb. No. 1 0.28 Kg/Ha, no antidote",30%
same,inhibition at 560 g/ha,"[8]; read-out: % Inhibition GFT, Table 23B, Herb. No. 1 0.56 Kg/Ha, no antidote",60%
same,inhibition at 1120 g/ha,"[8]; read-out: % Inhibition GFT, Table 23B, Herb. No. 1 1.12 Kg/Ha, no antidote",70%
same,inhibition at 140 g/ha,corn [9]; [19],15%
same,inhibition at 280 g/ha,corn [9]; [19],25%
same,inhibition at 560 g/ha,corn [9]; [19],50%
same,inhibition at 1120 g/ha,corn [9]; [19],65%
same,inhibition at 140 g/ha,corn [9]; [20],10%
same,inhibition at 280 g/ha,corn [9]; [20],25%
same,inhibition at 560 g/ha,corn [9]; [20],40%
same,inhibition at 1120 g/ha,corn [9]; [20],60%
same,inhibition at 140 g/ha,"[10]; read-out: % Inhibition VL, Table 23A, Herb. No. 1 0.14 Kg/Ha, no antidote",90%
same,inhibition at 280 g/ha,"[10]; read-out: % Inhibition VL, Table 23A, Herb. No. 1 0.28 Kg/Ha, no antidote",90%
same,inhibition at 560 g/ha,"[10]; read-out: % Inhibition VL, Table 23A, Herb. No. 1 0.56 Kg/Ha, no antidote",95%
same,inhibition at 1120 g/ha,"[10]; read-out: % Inhibition VL, Table 23A, Herb. No. 1 1.12 Kg/Ha, no antidote",95%
same,inhibition at 140 g/ha,"[10]; read-out: % Inhibition VL, Table 23B, Herb. No. 1 0.14 Kg/Ha, no antidote",85%
same,inhibition at 280 g/ha,"[10]; read-out: % Inhibition VL, Table 23B, Herb. No. 1 0.28 Kg/Ha, no antidote",95%
same,inhibition at 560 g/ha,"[10]; read-out: % Inhibition VL, Table 23B, Herb. No. 1 0.56 Kg/Ha, no antidote",90%
same,inhibition at 1120 g/ha,"[10]; read-out: % Inhibition VL, Table 23B, Herb. No. 1 1.12 Kg/Ha, no antidote",90%

# Source: patent EP0603240B1, “SAFENING HERBICIDAL PYRAZOLYLSULFONYLUREAS” (priority 1991, dated 1993)
